From patent US20230277553A1, “THERAPEUTIC COMPOSITION OF CURE-PRO COMPOUNDS FOR TARGETED DEGRADATION OF BET DOMAIN PROTEINS, AND METHODS OF MAKING AND USAGE” (CORNELL UNIVERSITY, priority 2020, published 2023)
“Also recorded” adds a separate entry of the source.

Experiments:
Format in all cases: cell-based
BRD4 [1] = target: T1, BRD4 (Homo sapiens, UniProt O60885); test: CURE-PRO-mediated BRD4 degradation, Western blot, HeLa cells; set-up: endogenous in cells; host or cells: HeLa; settings: 24 h; for BRD4 degradation, co-treatment with CRBN ligand 8046: 1:1 with 8046, 10 μM each; for BRD4 degradation, co-treatment with CRBN ligand 8066: 1:1 with 8066, 10 μM each (BRD-E10: 10 and 100 μM); for BRD4 degradation, BRD ligand alone: BRD monomer alone
Protocol: (§1) All cell lines were purchased from ATCC or DSMZ and grown at 37° C. with 5% CO2. Human HeLa cells were cultured in complete growth medium (Dulbecco's modified Eagle's medium (DMEM) supplemented with 10% FBS); MCF7 cells were cultured in complete growth medium (Dulbecco's modified Eagle's medium (DMEM) supplemented with 10% FBS and 0.01 mg/ml human recombinant insulin (Sigma Aldrich); Namalwa and MOLM-13 cells were cultured in complete growth medium (RPMI 1640 medium supplemented with 10% FBS); MV-4-11 were cultured in complete growth medium (Iscove's Modified Dulbecco's medium, supplemented with 10% FBS); HCT116 cells were cultured in complete growth medium (McCoy's 5a Medium supplemented with 10% FBS). For cellular degradation of BRD4 studies, cells were seeded in a 12-well plate at 70-80% confluency, allowed to attach overnight, and incubated with the indicated compounds for the indicated time. When indicated, a 15-minute pretreatment with 10 μM pomalidomide, 10 μM VHL298, 10 μM Nutlin3a, 1 μM MG-132 or 1 μM Carfilzomib was performed before the addition of CURE-PROs. For washout studies, after CURE-PRO treatment, media was aspirated and incubated with complete medium for the indicated time before lysis.
Anti-BRD4 (13440, 1:1,000 dilution for Western Blot and 1:25 dilution for ProteinSimple); Anti-BRD2 (5848 1:1,000 dilution for Western Blot and 1:25 dilution for ProteinSimple); β-Actin (3700, 1:2,000 dilution for Western Blot), β-Actin (4970, 1:50 dilution for ProteinSimple) anti-mouse IgG-HRP, and anti-rabbit IgG-HRP antibodies were purchased Cell Signaling Technology. Anti-GAPDH (600-401-A33, 1:100 dilution for ProteinSimple) was purchased from Rockland Immunochemicals, Inc. Anti-BRD3 (sc-81202, 1:200 dilution for Western Blot) was purchased from Santa Cruz Biotechnology.
HeLa, MCF7, or HCT116 cells (2.5-3×10^6) were treated for 24 hours with the indicated compounds solubilized in DMSO. The cells were washed in ice-cold PBS and were then lysed in RIPA lysis buffer (150 mM NaCl, 5 mM EDTA, 1% NP-40, 0.5% sodium deoxycholate, 0.1% SDS, 50 mM Tris, pH 8.0.) with Roche protease inhibitor complete cocktail and phosphatase inhibitors (10 mM sodium fluoride, 10 mM sodium pyrophosphate, 1 mM sodium orthovanadate and 20 mM β-glycerophosphate). The total protein concentrations were determined by Bradford Protein Assay and 10-20 μg of protein was loaded onto 4-15% Tris-Glycine gradient gels (Biorad). After standard gel electrophoresis, the separated proteins were transferred to PVDF membrane by wet transfer. The immunoblots were then blocked for 1 hour in 5% skim milk in TBST or 5% BSA in TBST, according to manufacturer's instructions, before an overnight incubation at 4° C. with indicated antibodies and membranes. Membranes were then incubated with the appropriate horseradish peroxidase-conjugated secondary antibodies (1:5,000 dilution) for 1 h at room temperature and the bands were visualized using the Clarity Max Western ECL Substrate (Biorad) and the ChemiDoc Imaging System (Biorad). Signal was detected with ECL Western Blotting Substrate (Pierce) and X-ray film processed with a Konica SRX-101 X-ray film processor or captured by Bio-Rad's Chemidoc Imaging system.
HeLa cells (2.5×106) were treated for 24 hours with the sample compounds solubilized in DMSO. Compounds were added at 1-10 μM each. Standardized protein samples were electrophoresed and imaged as described in the immunoblotting description above. FIGS. 6-18 depicts the CURE-PRO-mediated BRD4 degradation for BRD monomers (JQ1 derivatives comprising of catechol linkers), and CRBN ligands, 8048 and 8049 (pomalidomide derivatives comprising boronic acid linkers) combined in a 1:1 ratio.
HeLa cells (2.5×106) were treated for 24 hours with the compounds solubilized in DMSO. The compounds were added at 10 μM each. Standardized protein samples were electrophoresed and imaged as described in the immunoblotting section above. […]

BRD4 [2] = target: T1, BRD4; test: CURE-PRO-mediated BRD4 degradation with MDM2 ligands, WES (ProteinSimple), HCT116 cells; set-up: endogenous in cells; settings: HCT116, 24 h, WES; for BRD4 degradation, in combination with MDM2 ligand 8313: 1:1 with 8313, 1-10 μM each; for BRD4 degradation, in combination with MDM2 ligand 8314: 1:1 with 8314, 1-10 μM each
Protocol: as §1
WES Simple analysis was performed on WES system (ProteinSimple-Biotechne) according to the manufacturer's instructions. Total protein concentrations of cell lysates were determined by the Pierce BCA kit (Thermo Fisher). 3 μL of 0.3 μg/μL of the protein lysate was loaded onto a 12- to 230-kDa WES assay plate (ProteinSimple) where 300 nL sample was withdrawn through a capillary, subjected to electrophoretic separation of proteins by size, and followed by the simultaneous, HRP-based detection of proteins using the Anti-Rabbit Detection Module (Proteinsimple: #DM-001). The electropherograms were checked then the automatic peak detection was manually corrected if it was required.
(§2) HCT116 cells (3×10^6) were treated for 24 hours with the compounds solubilized in DMSO. Compounds were added at 1 μM-10 μM each. Standardized protein samples were electrophoresed and imaged as described in the WES ProteinSimple section above. FIGS. 59, 60, and 61 depict the concentration-dependence of CURE-PRO-mediated BRD4 degradation using MDM2 ligands.
as §2, with “62” for “59, 60,”, “63” for “61”
HCT116 cells (3×10^6) were treated for 24 hours with the compounds solubilized in DMSO. CURE-PRO monomers were added at 10 μM each and the proteasomal inhibitors at 1 μM. Standardized protein samples were electrophoresed and imaged as described in the WES ProteinSimple section above. FIG. 68 depicts the dependence of the proteasome for CURE-PRO-mediated BRD4 degradation.

BRD4 [3] = target: T1, BRD4; test: Summary of BRD4 degradation by CURE-PRO pairs, estimated from Western Blot or WES (Proteinsimple); set-up: endogenous in cells; settings: for Degradation of BRD4 in combination with CRBN ligand [drawing 372] / Degradation of BRD4 in combination with CRBN ligand [drawing 370] / Degradation of BRD4 in combination with CRBN ligand [drawing 371]: Table 1; for Degradation of BRD4 in combination with CRBN ligand [drawing 372]: third drawing (8066); for Degradation of BRD4 in combination with CRBN ligand [drawing 370]: aromatic 1,2-diol- or hindered cis-1,2-diol-containing CRBN ligand, first drawing (8046); for Degradation of BRD4 in combination with CRBN ligand [drawing 371]: second drawing (8047)
Excerpt: A black check mark indicates efficacy of 30% to 70% or higher protein degradation.

COc1ccc2c(c1)C(c1ccc(Cl)cc1)=N[C@@H](CC(=O)NCCCCCNC(=O)c1cccc(B(O)O)c1)c1nnc(C)n1-2 [BRD-E8]
Concentration at which BRD4 degradation is observed, co-dosed with 8046 (BRD4 [1]; 1:1 with 8046): 1 µM
BRD4 degradation, co-treatment with CRBN ligand 8046 (BRD4 [1]; Western blot): causes degradation of BRD4; also recorded: Degradation is noted
Concentration at which BRD4 degradation is observed, co-dosed with 8046 (BRD4 [1]; 1:1 with 8046, tested 1 nM-1 μM each): 0.1 µM
BRD4 degradation, co-treatment with CRBN ligand 8066 (BRD4 [1]; Western blot): causes degradation of BRD4; also recorded: Degradation is noted
BRD4 degradation, BRD ligand alone (BRD4 [1]; Western blot): no change in expression
BRD4 degradation, in combination with MDM2 ligand 8313 (BRD4 [2]): had no effect on BRD4 protein levels
BRD4 degradation, in combination with MDM2 ligand 8314 (BRD4 [2]): caused partial loss of the BRD4 protein; also recorded: Degradation is observed
Degradation of BRD4 in combination with CRBN ligand [drawing 372] (BRD4 [3]): ✓ (A black check mark indicates efficacy of 30% to 70% or higher protein degradation)
Degradation of BRD4 in combination with CRBN ligand [drawing 370] (BRD4 [3]): ✓ (A black check mark indicates efficacy of 30% to 70% or higher protein degradation)

COc1ccc2c(c1)C(c1ccc(Cl)cc1)=N[C@@H](CC(=O)NCCc1ccc(B(O)O)cc1)c1nnc(C)n1-2 [BRD-E14, (4-(2-(2-((4S)-6-(4-chlorophenyl)-8-methoxy-1-methyl-4H-benzo[f][1,2,4]triazolo[4,3-a][1,4]diazepin-4-yl)acetamido)ethyl)phenyl)boronic acid]
BRD4 degradation, co-treatment with CRBN ligand 8047 (BRD4 [1]; 1:1 with 8047, 10 μM each, Western blot): causes degradation of BRD4; also recorded: Degradation is noted
BRD4 degradation, in combination with MDM2 ligand 8314 (BRD4 [2]): caused partial loss of the BRD4 protein; also recorded: Degradation is observed
Degradation of BRD4 in combination with CRBN ligand [drawing 371] (BRD4 [3]): ✓ (A black check mark indicates efficacy of 30% to 70% or higher protein degradation)
Degradation of BRD4 in combination with VHL ligand [drawing 397] (BRD4 [3]; Table 3, aromatic 1,2-diol-containing VHL ligand, second drawing (8305)): ✓ (A black check mark indicates efficacy of 30% to 70% or higher protein degradation)

CCNC(=O)C[C@@H]1N=C(c2ccc(Cl)cc2)c2cc(OCCNC(=O)c3cccc(B(O)O)c3)ccc2-n2c(C)nnc21 [BRD-E21, (3-((2-(((4S)-6-(4-chlorophenyl)-4-(2-(ethylamino)-2-oxoethyl)-1-methyl-4H-benzo[f][1,2,4]triazolo[4,3-a][1,4]diazepin-8-yl)oxy)ethyl)carbamoyl)phenyl)boronic acid]
Concentration from which BRD4 degradation is observed, co-dosed with 8047 (BRD4 [1]; 1:1 with 8047, tested 1 nM-1 μM each): ≥ 10 nM
BRD4 degradation, BRD ligand alone (BRD4 [1]; Western blot): no change in expression
BRD4 degradation, in combination with MDM2 ligand 8313 (BRD4 [2]): had no effect on BRD4 protein levels
BRD4 degradation, in combination with MDM2 ligand 8314 (BRD4 [2]): caused partial loss of the BRD4 protein; also recorded: Degradation is observed
Degradation of BRD4 in combination with CRBN ligand [drawing 371] (BRD4 [3]): ✓ (A black check mark indicates efficacy of 30% to 70% or higher protein degradation)

CCNC(=O)C[C@@H]1N=C(c2ccc(Cl)cc2)c2cc(OCCCCCCNC(=O)c3ccc(B(O)O)cc3)ccc2-n2c(C)nnc21 [BRD-E79, (4-((6-(((4S)-6-(4-chlorophenyl)-4-(2-(ethylamino)-2-oxoethyl)-1-methyl-4H-benzo[f][1,2,4]triazolo[4,3-a][1,4]diazepin-8-yl)oxy)hexyl)carbamoyl)phenyl)boronic acid]
BRD4 degradation, co-treatment with CRBN ligand 8046 (BRD4 [1]; Western blot): causes degradation of BRD4; also recorded: Degradation is noted
BRD4 degradation, co-treatment with CRBN ligand 8066 (BRD4 [1]; Western blot): causes degradation of BRD4; also recorded: Degradation is noted
BRD4 degradation, BRD ligand alone (BRD4 [1]; Western blot): no change in expression
BRD4 degradation, in combination with MDM2 ligand 8313 (BRD4 [2]): caused BRD4 protein degradation at 1 and 10 μM; also recorded: Degradation of BRD4 is observed
BRD4 degradation, in combination with MDM2 ligand 8314 (BRD4 [2]): no protein loss was observed
Degradation of BRD4 in combination with CRBN ligand [drawing 371] (BRD4 [3]): ✓ (A black check mark indicates efficacy of 30% to 70% or higher protein degradation)
Degradation of BRD4 in combination with CRBN ligand [drawing 372] (BRD4 [3]): ✓ (A black check mark indicates efficacy of 30% to 70% or higher protein degradation)
Degradation of BRD4 in combination with CRBN ligand [drawing 370] (BRD4 [3]): ✓ (A black check mark indicates efficacy of 30% to 70% or higher protein degradation)

CCNC(=O)C[C@@H]1N=C(c2ccc(Cl)cc2)c2cc(OCCOCCOCCOCCOCCOCCNC(=O)c3cccc(O)c3O)ccc2-n2c(C)nnc21 [BRD-N71, N-(17-(((4S)-6-(4-chlorophenyl)-4-(2-(ethylamino)-2-oxoethyl)-1-methyl-4H-benzo[f][1,2,4]triazolo[4,3-a][1,4]diazepin-8-yl)oxy)-3,6,9,12,15-pentaoxaheptadecyl)-2,3-dihydroxybenzamide]
BRD4 degradation, co-treatment with CRBN ligand 8048 (BRD4 [1]; 1:1 with 8048, 1-10 μM each, Western blot): causes degradation of BRD4; also recorded: Some selectivity for BRD-N71 and 8048 is noted
BRD4 degradation, co-treatment with CRBN ligand 8049 (BRD4 [1]; 1:1 with 8049, 1-10 μM each, Western blot): no evidence of BRD4 degradation
BRD4 degradation, BRD ligand alone (BRD4 [1]; Western blot): no degradation of BRD4
Degradation of BRD4 in combination with CRBN ligand [drawing 407] (BRD4 [3]; Table 4, aryl-boronic acid-containing CRBN ligand, first drawing (by text: 8048)): ✓ (A black check mark indicates efficacy of 30% to 70% or higher protein degradation)
Degradation of BRD4 in combination with MDM2 ligand [drawing 424] (BRD4 [3]; Table 5, aryl-boronic acid-containing MDM2 ligand, second drawing (8312)): ✓ (A black check mark indicates efficacy of 30% to 70% or higher protein degradation)
